Measured values from ChEMBL document CHEMBL1155056, “4-(Anilino)pyrrole-2-carboxamides: Novel non-steroidal/non-anilide type androgen antagonists effective upon human prostate tumor LNCaP cells with mutated nuclear androgen receptor” (Bioorg Med Chem, 2008).
The source made the active and inactive calls. No cut-off for these calls is given here.

Columns and labels:
Androgen receptor [1] = molecular target: T1, Androgen receptor (Homo sapiens, UniProt P10275)
T1 sequence (P10275 whole entry): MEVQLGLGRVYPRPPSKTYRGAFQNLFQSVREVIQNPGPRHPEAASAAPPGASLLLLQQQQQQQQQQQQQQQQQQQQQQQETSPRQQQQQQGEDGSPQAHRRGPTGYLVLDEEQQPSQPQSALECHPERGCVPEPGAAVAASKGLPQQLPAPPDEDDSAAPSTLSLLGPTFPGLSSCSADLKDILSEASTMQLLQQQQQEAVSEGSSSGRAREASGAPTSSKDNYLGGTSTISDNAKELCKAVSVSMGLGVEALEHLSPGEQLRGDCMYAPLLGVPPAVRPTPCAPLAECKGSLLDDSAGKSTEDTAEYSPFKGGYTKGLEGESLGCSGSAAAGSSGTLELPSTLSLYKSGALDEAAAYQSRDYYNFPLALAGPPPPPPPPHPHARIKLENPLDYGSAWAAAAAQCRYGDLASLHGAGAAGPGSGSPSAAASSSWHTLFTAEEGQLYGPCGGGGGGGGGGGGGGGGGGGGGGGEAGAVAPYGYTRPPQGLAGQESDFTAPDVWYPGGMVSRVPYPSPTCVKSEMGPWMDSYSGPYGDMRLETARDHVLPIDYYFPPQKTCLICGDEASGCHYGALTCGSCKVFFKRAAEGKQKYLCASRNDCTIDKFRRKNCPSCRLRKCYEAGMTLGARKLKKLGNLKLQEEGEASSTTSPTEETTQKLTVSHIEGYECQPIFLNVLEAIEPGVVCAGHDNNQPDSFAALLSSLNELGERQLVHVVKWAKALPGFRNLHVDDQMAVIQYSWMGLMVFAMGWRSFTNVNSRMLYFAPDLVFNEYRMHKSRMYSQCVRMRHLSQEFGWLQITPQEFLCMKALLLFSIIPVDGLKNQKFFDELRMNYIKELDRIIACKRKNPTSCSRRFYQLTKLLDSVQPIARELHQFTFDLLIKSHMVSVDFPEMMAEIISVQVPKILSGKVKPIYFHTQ

[2] = test system: Androgen receptor (Homo sapiens), P10275 [T878A]; assay: Antagonist activity at human recombinant androgen receptor T877A mutant assessed as inhibition of prostate specific antigen production in human LNCaP cells by ELISA; assay type: functional, cell-based
Androgen receptor [3] = molecular target: Androgen receptor (Homo sapiens, UniProt P10275, T878A); assay: Displacement of [3H]testosterone from human recombinant androgen receptor T877A mutant expressed in LNCaP cells
LNCaP = assay: Antiproliferative activity against human LNCaP cells; assay type: functional, cell-based
[4] = molecular target: T2, Androgen receptor (Homo sapiens) (UniProt P10275); conditions: 30 uM
T2 sequence (whole entry): T1 sequence (P10275 whole entry)
Description: Displacement of [3H]testosterone from wild type human androgen receptor at 30 uM

[5] = molecular target: T2, Androgen receptor (Homo sapiens); assay: Displacement of [3H]testosterone from wild type human androgen receptor at 3 uM
[6] = molecular target: T2, Androgen receptor (Homo sapiens); assay: Antagonist activity at wild type human recombinant androgen receptor assessed as inhibition of testosterone-induced growth of mouse androgen dependent SC3 cells at 1 uM by WST-1 method; assay type: functional, cell-based; conditions: SC-3

Chain of Androgen receptor (Homo sapiens, UniProt P10275, T878A) (P10275 whole entry T878A): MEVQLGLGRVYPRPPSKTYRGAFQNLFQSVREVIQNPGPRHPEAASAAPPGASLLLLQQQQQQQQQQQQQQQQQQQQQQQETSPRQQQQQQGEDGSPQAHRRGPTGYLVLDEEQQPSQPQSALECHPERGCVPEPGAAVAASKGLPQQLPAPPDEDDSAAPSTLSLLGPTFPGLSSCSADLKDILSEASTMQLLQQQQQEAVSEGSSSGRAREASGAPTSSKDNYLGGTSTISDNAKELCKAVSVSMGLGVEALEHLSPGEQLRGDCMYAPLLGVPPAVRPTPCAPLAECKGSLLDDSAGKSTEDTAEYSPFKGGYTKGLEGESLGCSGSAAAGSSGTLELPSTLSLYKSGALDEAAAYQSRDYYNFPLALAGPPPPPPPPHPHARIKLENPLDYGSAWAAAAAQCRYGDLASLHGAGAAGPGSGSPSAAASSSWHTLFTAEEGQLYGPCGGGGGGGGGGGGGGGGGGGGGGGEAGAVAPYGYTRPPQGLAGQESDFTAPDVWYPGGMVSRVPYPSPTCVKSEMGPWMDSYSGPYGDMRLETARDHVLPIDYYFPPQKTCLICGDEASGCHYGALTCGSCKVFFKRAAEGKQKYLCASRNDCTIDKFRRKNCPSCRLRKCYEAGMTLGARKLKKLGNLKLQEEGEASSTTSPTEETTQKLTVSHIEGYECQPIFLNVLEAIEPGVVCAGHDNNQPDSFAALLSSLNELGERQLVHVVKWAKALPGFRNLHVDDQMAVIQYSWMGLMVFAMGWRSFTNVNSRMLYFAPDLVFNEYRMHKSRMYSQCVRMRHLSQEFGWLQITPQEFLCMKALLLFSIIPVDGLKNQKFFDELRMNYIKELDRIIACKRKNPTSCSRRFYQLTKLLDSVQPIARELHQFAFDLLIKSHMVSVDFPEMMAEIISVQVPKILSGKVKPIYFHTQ
Chain of Androgen receptor (Homo sapiens), P10275 [T878A] (P10275 whole entry T878A): as above

Compound | Ki (Androgen receptor [1]) [nM] | Ki (Androgen receptor [3]) [nM] | also measured
Cc1cc(C)cc(N(Cc2ccc(O)cc2)c2cc(C(=O)N3CCCC3)n(C)c2)c1 | 690 |  | 
CCN(c1cc(C)cc(C)c1)c1cc(C(=O)N2CCCC2)n(C)c1 | 2700 |  | 
Cc1cc(C)cc(N(c2cc(C(=O)N3CCCC3)n(C)c2)C(C)C)c1 | 2700 |  | 
CC(=O)c1ccc(N(Cc2ccccc2)c2cc(C(=O)N3CCCC3)n(C)c2)cc1 | 140 | 130 | Activity [2]: inactive
Cc1cc(C)cc(N(Cc2ccc(CO)cc2)c2cc(C(=O)N3CCCC3)n(C)c2)c1 | 2200 |  | 
O=C(c1ccc(N(Cc2ccccc2)c2ccc([N+](=O)[O-])cc2)cc1)N1CCCC1 | 340 |  | 
CC(C)(O)C(=O)Nc1ccc([N+](=O)[O-])c(C(F)(F)F)c1 |  |  | Activity (LNCaP): inactive
Cn1cc(N(Cc2ccccc2)c2ccc([N+](=O)[O-])c(C(F)(F)F)c2)cc1C(=O)N1CCCC1 |  | 49 | inhibition [4]: 52%
Cn1cc(N(Cc2ccc(CO)cc2)c2ccc([N+](=O)[O-])cc2)cc1C(=O)N1CCCC1 | 1800 | 1400 | 
Cn1cc(N(Cc2ccccc2)c2ccc(C(F)(F)F)cc2)cc1C(=O)N1CCCC1 | 270 | 36 | 
Cc1cc(C)cc(N(C)c2cc(C(=O)N3CCCC3)n(C)c2)c1 | 6100 |  | 
Cn1cc(N(Cc2ccccc2)c2ccc([N+](=O)[O-])cc2)cc1C(=O)N1CCCC1 | 110 | 5 | Activity (LNCaP): Active
Cn1cc(N(Cc2ccc(F)cc2)c2ccc([N+](=O)[O-])cc2)cc1C(=O)N1CCCC1 | 800 | 140 | 
CC(C)N(c1ccc([N+](=O)[O-])cc1)c1cc(C(=O)N2CCCC2)n(C)c1 | 3400 |  | 
Cc1cc(C)cc(N(Cc2ccccc2)c2cc(C(=O)N3CCCC3)n(C)c2)c1 | 350 |  | inhibition [5]: 20%
Cn1cc(N(Cc2ccccc2)c2ccc([N+](=O)[O-])cc2)cc1C(N)=O | 220 |  | 
Cc1ccc(CN(c2ccc([N+](=O)[O-])cc2)c2cc(C(=O)N3CCCC3)n(C)c2)cc1 | 810 | 130 | 
Cn1cc(N(Cc2ccc(O)cc2)c2ccc([N+](=O)[O-])cc2)cc1C(=O)N1CCCC1 | 730 | 330 | 

Compound | Ki (Androgen receptor [1]) [nM] | Ki (Androgen receptor [3]) [nM] | also measured
Cn1cc(Nc2ccc([N+](=O)[O-])cc2)cc1C(=O)N1CCCC1 | 4900 |  | 
C[C@](O)(CS(=O)(=O)c1ccc(F)cc1)C(=O)Nc1ccc(C#N)c(C(F)(F)F)c1 |  |  | Activity (LNCaP): Active
Cn1cc(N(CC2CCCCC2)c2ccc([N+](=O)[O-])cc2)cc1C(=O)N1CCCC1 | 520 |  | 
COC(=O)c1ccc(N(Cc2ccccc2)c2cc(C(=O)N3CCCC3)n(C)c2)cc1 | 180 | 180 | Activity [2]: inactive
Cn1cc(N(Cc2ccccc2)c2ccc([N+](=O)[O-])cc2)cc1C(=O)N1CCc2ccccc21 |  | 9 | inhibition [5]: 25%
CN(c1ccc([N+](=O)[O-])cc1)c1cc(C(=O)N2CCCC2)n(C)c1 | 3600 |  | 
Cn1cc(N(Cc2ccccc2)c2ccc(C#N)cc2)cc1C(=O)N1CCCC1 | 130 | 6 | 
Cc1cc(C)cc(Nc2cc(C(=O)N3CCCC3)n(C)c2)c1 | 3100 |  | 
Cn1cc(N(Cc2ccccc2)c2ccc([N+](=O)[O-])cc2)cc1C(=O)N1CCCCC1 | 110 | 27 | 
CCN(CC)C(=O)c1cc(N(Cc2ccccc2)c2ccc([N+](=O)[O-])cc2)cn1C | 100 | 3 | 
CCN(c1ccc([N+](=O)[O-])cc1)c1cc(C(=O)N2CCCC2)n(C)c1 | 2000 |  | 
CCOC(=O)c1cc(N(Cc2ccccc2)c2ccc([N+](=O)[O-])cc2)cn1C | 180 | 7 | 
O=C(c1cccc(N(Cc2ccccc2)c2ccc([N+](=O)[O-])cc2)c1)N1CCCC1 | 370 |  | 
Cc1cc(C)cc(N(CC2CCCCC2)c2cc(C(=O)N3CCCC3)n(C)c2)c1 | 490 |  | 
Cn1cc(N(Cc2ccccc2)c2ccc([N+](=O)[O-])cc2)cc1CO | 170 |  | 
Cn1cc(N(Cc2ccccc2)c2ccc([N+](=O)[O-])cc2)cc1C(=O)O | 75 | 3 | 
Cn1cc(N(Cc2ccccc2)c2ccccc2[N+](=O)[O-])cc1C(=O)N1CCCC1 | 1300 |  | inhibition [6]: 27%
